Here are results for twelve molecules from ChEMBL document CHEMBL2034824, “Pyridyl-2,5-diketopiperazines as potent, selective, and orally bioavailable oxytocin antagonists: synthesis, pharmacokinetics, and in vivo potency” (J Med Chem, 2012).

For data set [1], the target named is T1, Oxytocin receptor (Homo sapiens, UniProt P30559).
T1 sequence (P30559 whole entry): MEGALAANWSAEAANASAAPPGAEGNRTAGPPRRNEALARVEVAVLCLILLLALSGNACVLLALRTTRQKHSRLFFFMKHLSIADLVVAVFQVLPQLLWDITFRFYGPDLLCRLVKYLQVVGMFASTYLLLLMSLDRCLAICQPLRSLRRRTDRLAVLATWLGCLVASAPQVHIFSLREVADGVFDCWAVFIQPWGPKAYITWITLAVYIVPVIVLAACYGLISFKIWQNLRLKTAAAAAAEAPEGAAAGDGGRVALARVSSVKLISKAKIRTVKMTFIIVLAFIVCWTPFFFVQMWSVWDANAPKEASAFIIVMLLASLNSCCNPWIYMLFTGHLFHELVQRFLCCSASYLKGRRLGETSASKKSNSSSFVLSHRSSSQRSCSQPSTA
In words: Antagonist activity at human oxytocin receptor assessed as inhibition of oxytocin binding by FLIPR analysis.

The nature of data set [2]: Lipophilicity, log D of the compound by HPLC analysis. It is filed as physicochemical.
Data set [3] in a line: Clearance in rat at 5 mg/kg. It is filed as ADME, organism-based. The arrangement: dose 5 mg/kg. To be noted: in vivo.
Data set [4] has as its target serum albumin (Homo sapiens, UniProt P02768). Put plainly: Binding affinity to human serum albumin. It is filed as ADME. To be noted: read-out: PB (converted).
The nature of data set [5]: AUC in rat at 5 mg/kg, po. It is filed as ADME, organism-based. The arrangement: dose 5 mg/kg, route oral. To be noted: plasma.
The nature of data set [6]: Oral bioavailability in dog at 0.6 mg/kg. To be noted: in vivo. It is filed as ADME, organism-based, Canis lupus familiaris.
A short description of data set [7]: Aqueous solubility of the compound by HPLC analysis. It is filed as physicochemical.
The target of data set [8] is T1, Oxytocin receptor. In words: Displacement of [3H]oxytocin from human oxytocin receptor. For orientation: Displacement assays read how much labelled ligand stays bound in the presence of the test substance.
Data set [9] can be described thus: Oral bioavailability in rat at 5 mg/kg. It is filed as ADME, organism-based. The settings on record: in vivo.
Data set [10] can be described thus: AUC in dog at 0.6 mg/kg, po. It is filed as ADME, organism-based, Canis lupus familiaris. The settings on record: plasma. Further details: dose 0.6 mg/kg, route oral.
Data set [11] concerns the target serum albumin (Rattus norvegicus, UniProt P02770). In words: Binding affinity to rat serum albumin. It is filed as ADME. To be noted: read-out: PB (converted).
Data set [12] is described as follows: Clearance in dog at 0.6 mg/kg. The arrangement: dose 0.6 mg/kg. To be noted: in vivo. It is filed as ADME, organism-based, Canis lupus familiaris.
Data set [13] has as its system Liver microsomes. Put plainly: Intrinsic clearance in human liver microsomes. It is filed as ADME, Microsome.
Data set [14] in a line: Intrinsic clearance in cynomolgus monkey liver microsomes. It is filed as ADME, Macaca fascicularis, Microsome. (In general: Liver microsomes are vesicles of endoplasmic reticulum, rich in cytochrome P450 enzymes.)
Data set [15] relates to Liver microsomes. In words: Intrinsic clearance in rat liver microsomes. It is filed as ADME, Microsome.
A further data set has as its system Liver. Put plainly: Intrinsic clearance in dog liver microsomes. It is filed as ADME, Canis lupus familiaris, Microsome.

In brackets after ≈: the same amount, converted by molar mass. Where only a bound is given, the exact number is not on record here.

Sequence of serum albumin (Homo sapiens, UniProt P02768) (P02768 whole entry): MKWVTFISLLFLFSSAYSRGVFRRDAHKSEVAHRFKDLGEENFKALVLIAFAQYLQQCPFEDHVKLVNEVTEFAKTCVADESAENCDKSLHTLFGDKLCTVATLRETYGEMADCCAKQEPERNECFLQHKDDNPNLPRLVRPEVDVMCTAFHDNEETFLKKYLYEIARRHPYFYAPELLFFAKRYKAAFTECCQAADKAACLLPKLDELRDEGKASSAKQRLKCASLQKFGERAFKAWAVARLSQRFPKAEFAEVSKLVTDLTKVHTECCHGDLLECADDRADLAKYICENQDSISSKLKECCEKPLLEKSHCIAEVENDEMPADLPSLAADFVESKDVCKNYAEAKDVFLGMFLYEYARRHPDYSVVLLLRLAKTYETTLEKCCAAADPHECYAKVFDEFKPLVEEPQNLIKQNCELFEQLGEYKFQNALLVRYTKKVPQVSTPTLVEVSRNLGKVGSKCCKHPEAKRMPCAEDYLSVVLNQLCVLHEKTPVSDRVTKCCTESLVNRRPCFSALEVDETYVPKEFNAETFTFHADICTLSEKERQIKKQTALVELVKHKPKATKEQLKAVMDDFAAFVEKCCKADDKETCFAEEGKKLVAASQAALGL
Sequence of serum albumin (Rattus norvegicus, UniProt P02770) (P02770 whole entry): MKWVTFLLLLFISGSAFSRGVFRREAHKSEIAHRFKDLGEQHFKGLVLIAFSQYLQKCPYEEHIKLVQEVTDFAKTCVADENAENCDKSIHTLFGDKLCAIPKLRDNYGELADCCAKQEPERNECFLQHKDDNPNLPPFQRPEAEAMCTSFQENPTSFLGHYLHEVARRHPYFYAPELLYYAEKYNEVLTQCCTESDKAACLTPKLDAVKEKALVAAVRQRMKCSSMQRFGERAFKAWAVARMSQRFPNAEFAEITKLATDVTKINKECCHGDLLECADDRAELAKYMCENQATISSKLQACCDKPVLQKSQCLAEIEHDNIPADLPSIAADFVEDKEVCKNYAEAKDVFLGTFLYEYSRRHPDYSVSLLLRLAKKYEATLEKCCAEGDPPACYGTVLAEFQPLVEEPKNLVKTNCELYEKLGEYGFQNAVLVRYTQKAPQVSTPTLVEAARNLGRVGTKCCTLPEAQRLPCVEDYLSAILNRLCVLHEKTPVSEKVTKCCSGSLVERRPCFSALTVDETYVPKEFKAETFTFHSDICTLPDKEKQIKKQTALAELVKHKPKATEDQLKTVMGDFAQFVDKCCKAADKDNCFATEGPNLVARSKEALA

A word on the Ki: it is the dissociation constant of the complex between target and ligand, obtained from inhibition or displacement. On to `CC(C)C[C@@H]1C(=O)N[C@H](C2Cc3ccccc3C2)C(=O)N1[C@@H](C(=O)NC(C)C)c1ccccc1C(F)(F)F`, for which, on Oxytocin receptor [1], the Ki is 31.6 nM.
For `COc1ccccc1[C@H](C(=O)NC(C)C)N1C(=O)[C@@H](C2Cc3ccccc3C2)NC(=O)[C@H]1CC(C)C`, at Oxytocin receptor [1], the Ki is 31.6 nM.
In the case of `CC(C)C[C@@H]1C(=O)N[C@H](C2Cc3ccccc3C2)C(=O)N1[C@@H](C(=O)NC(C)C)c1ccccc1OC(F)(F)F`, the inhibition constant (Ki) at Oxytocin receptor [1] is 39.8 nM.
Take `CC(C)C[C@@H]1C(=O)N[C@H](C2Cc3ccccc3C2)C(=O)N1[C@@H](C(=O)NC(C)C)c1ccccc1-c1ccccc1`: on Oxytocin receptor [1], the Ki is 39.8 nM.
Same read-out and setting: next, `COC(=O)c1ccccc1[C@@H](C(=O)NC(C)C)N1C(=O)[C@@H](C2Cc3ccccc3C2)NC(=O)[C@H]1CC(C)C`: 158 nM.
For orientation: logD means the decadic logarithm of the distribution of all forms, ionised or not, between an organic phase and buffer at a given pH. A word on the clearance: it is the rate of elimination divided by the concentration. One may read the AUC as concentration integrated over time. A word on the bioavailability: it is the share of a dose that reaches the circulation, judged against a reference dose that is usually intravenous. As a reminder, the solubility is how much of the substance goes into solution per volume. Molecule `COc1ccc([C@H](C(=O)N(C)C)N2C(=O)[C@@H](C3Cc4ccccc4C3)NC(=O)[C@H]2CC(C)C)cn1` showed a logD in data set [2] of 2.7. Moreover, the figures for the clearance in data set [3] and in data set [12] were 23 mL/min/kg and 8 mL/min/kg, respectively. Besides, the fraction unbound at serum albumin [4] was 0.08; on serum albumin [11], 0.14. Further, the results for the AUC in data set [5] and in data set [10] were 2230 ng·h/mL and 158 ng·h/mL, respectively. Further, the bioavailability in data set [6] was 13%; in [9], 62%. Moreover, the solubility in [7] turned out to be 216 µg/mL (≈ 451 µM). Besides, on Oxytocin receptor [8], the Ki is 0.398 nM.
In [2], `COc1ccc([C@H](C(=O)N2CCOCC2)N2C(=O)[C@@H](C3Cc4ccccc4C3)NC(=O)[C@H]2CC(C)C)cn1` came in with a logD of 2.7. Also, the clearance in data set [3] was 35 mL/min/kg. In addition, the fraction unbound is 0.24 at serum albumin [4] and 0.22 at serum albumin [11]. The molecule further yielded an AUC in [5] of 2130 ng·h/mL. The molecule also yielded a solubility in [7] of 249 µg/mL (≈ 478 µM). For the same molecule, on Oxytocin receptor [8], the affinity, expressed as Ki, was 0.251 nM. In data set [9], this molecule displayed a bioavailability of 88%.
For the molecule `CC(C)C[C@@H]1C(=O)N[C@H](C2Cc3ccccc3C2)C(=O)N1[C@@H](C(=O)N(C)C)c1ccc(N(C)C)nc1`, the logD in [2] turned out to be 2.6. For the same molecule, the fraction unbound on serum albumin [4] was 0.26; at serum albumin [11], 0.18. The molecule also registered an AUC in data set [5] of 135 ng·h/mL. Also, the solubility in data set [7] is 233 µg/mL (≈ 474 µM). For the same molecule, at Oxytocin receptor [8], the Ki is 0.251 nM.
On to `CC(C)C[C@@H]1C(=O)N[C@H](C2Cc3ccccc3C2)C(=O)N1[C@@H](C(=O)N1CCOCC1)c1ccc(N(C)C)nc1`, for which, in data set [2], the logD is 2.9. The fraction unbound on serum albumin [4] is 0.3; at serum albumin [11], 0.29. Also, in data set [5], the AUC worked out at 80 ng·h/mL. This molecule gave a solubility in data set [7] of 235 µg/mL (≈ 440 µM). This molecule showed a Ki on Oxytocin receptor [8] of 0.316 nM.
In data set [2], `Cc1ccc([C@H](C(=O)N(C)C)N2C(=O)[C@@H](C3Cc4ccccc4C3)NC(=O)[C@H]2CC(C)C)cn1` had a logD of 2.1. The CLH worked out at 11 mL/min/g with Liver microsomes [13], 21 mL/min/g in data set [14], 3 mL/min/g in the data set on Liver microsomes [15] and 3 mL/min/g with Liver. The values for the clearance in data set [3] and in [12] were 18 mL/min/kg and 6 mL/min/kg, respectively. Further, the values for the fraction unbound at serum albumin [4] and at serum albumin [11] were 0.17 and 0.14, respectively. Moreover, the AUC in data set [5] was 2680 ng·h/mL; in data set [10], 454 ng·h/mL. Moreover, the figures for the bioavailability in data set [6] and in data set [9] were 26% and 57%, respectively. The solubility in [7] is over 236 µg/mL. This molecule showed an inhibition constant Ki on Oxytocin receptor [8] of 1.58 nM.
For `Cc1ccc([C@H](C(=O)N2CCOCC2)N2C(=O)[C@@H](C3Cc4ccccc4C3)NC(=O)[C@H]2CC(C)C)cn1`, the logD in data set [2] turned out to be 2.1. Moreover, the fraction unbound on serum albumin [4] is 0.33; on serum albumin [11], 0.38. The results for the AUC in data set [5] and in data set [10] were 811 ng·h/mL and 53 ng·h/mL, respectively. In data set [6], the bioavailability was determined as 10%. In addition, the solubility in data set [7] is over 253 µg/mL. The molecule further showed a Ki at Oxytocin receptor [8] of 0.398 nM. Further, the clearance in data set [12] was 17 mL/min/kg.
On to `Cc1ccc([C@H](C(=O)N2CCCC2)N2C(=O)[C@@H](C3Cc4ccccc4C3)NC(=O)[C@H]2CC(C)C)cn1`, for which, in data set [2], the logD was found to be 2.3. In data set [3], this molecule had a clearance of 33 mL/min/kg. The fraction unbound on serum albumin [4] was 0.24; on serum albumin [11], 0.3. In [5], this molecule showed an AUC of 920 ng·h/mL. This molecule yielded a solubility in data set [7] of 241 µg/mL (≈ 493 µM). Moreover, the affinity at Oxytocin receptor [8] corresponds to a Ki of 0.501 nM. Besides, in data set [9], the bioavailability was found to be 36%.
